Columns and labels:
HLEpiC [1] = assay: Inhibitory action on cell migration (Oris Cell Migration plate); assay type: cell-based, human; conditions: about 24 and 48 hours after treatment
Protocol: HLEpiC was diluted with a medium (Epithelial Cell Medium) and dispensed to Poly-L-lysine coated Oris™ Cell Migration 96 well plate, to which a stopper was firmly attached, at 50 μL/well (25000 cells/well) and cultured in a carbon dioxide incubator (37° C., 5% CO2) for 24 hours. The stopper was removed, and after brief washing with the medium, a solution obtained by adding 5 μL of 10 mM Cell Tracker Green Fluorescent Probe (Lonza Walkersville, Inc.) to 4995 μL of the medium was added at 100 μL/well, and the cells were stained in a carbon dioxide incubator (37° C., 5% CO2) for about 30 minutes. After brief washing with the medium, the medium was further added and the cells were cultured in a carbon dioxide incubator (37° C., 5% CO2) for about 30 minutes.
After brief washing with the medium, a test substance, a positive control, a comparative control or the medium (control) at each concentration given below was added at 100 μL/well.
(§1) Test substance: Ripasudil with a concentration of […], 100 μM or 1 mM,
Positive control: CD with a concentration of 2 μM,
These were cultured in a carbon dioxide incubator (37° C., 5% CO2). The state of HLEpiC in the Detection Zone in each sample was observed by a confocal laser scanning microscope about 24 hours after the treatment and 48 hours after the treatment.

HLEpiC [2] = assay: Reversibility of inhibition of cell migration after removal; assay type: cell-based, human; conditions: for time after removal at which Detection Zone was filled with HLEpiC: then removal
Protocol: After the operation in Example 4, the test substance, the positive control, or the comparative control was removed, and after brief washing with the medium, the medium was added at 100 μL/well, and the cells were cultured in a carbon dioxide incubator (37° C., 5% CO2).

Normal human fibroblasts = assay: Cytostatic action, BrdU uptake (Cell Proliferation ELISA); assay type: cell-based; conditions: dermal fibroblast proliferation, 2 days
Protocol: Normal human fibroblasts (Sanko Junyaku Co., Ltd.) were seeded at 2000 cells/well and cultured overnight. Next day, the medium (FGM-2 (Sanko Junyaku Co., Ltd.)) was exchanged (150 μL), and 10 μL of Ripasudil was then added so that the final concentration was 0.1 μM, 1 μM and 10 μM. After culturing for 2 days, 10 μL of BrdU (58.8-fold diluted solution: an undiluted solution is a 1000-fold solution) was added, and the cells were cultured for 2 hours. OD540-620 was measured using a plate reader after fixation and antibody addition, washing and coloring, and reaction termination in accordance with the protocol of Cell Proliferation ELISA BrdU kit (Roche), and an action on proliferation was evaluated. A value in a sample in which Ripasudil is not added is considered as 100%, and the uptake rate of BrdU under each condition is shown in Table 2.

[3] = test system: HT-1080 cell-containing collagen gel; assay: Inhibitory action on collagen gel contraction; assay type: cell-based; set-up: key: +: a contraction level was almost equal to that of a group to which Ripasudil was not added; ++: contraction was inhibited; +++: contraction was significantly inhibited; conditions: HT1080 collagen gel, two or three days
Protocol: HT-1080 cell suspension adjusted to a density of 150000 to 200000 cells/mL with a medium (medium: E'MEM (Sigma)/10% FBS/NEAA/PCSM), and a solution, obtained by mixing A, B and C solutions (A solution: Cellmatrix (Collagen Type I 3 mg/mL), B solution: concentrated culture solution, 10×MEM Hank's culture solution, and C solution: buffer solution for reconstitution) of collagen gel culture kit (Nitta Gelatin Inc.) mixed at a ratio of 8:1:1 and cooling the obtained mixture, were mixed at a ratio of 1.4:1, and the obtained mixture was seeded in a 48 Well Plate at 500 μL/well and gelatinized in a CO2 incubator to produce a cell-containing collagen gel. After gelation, 1 mL of the medium in which Ripasudil was adjusted to 0.1 μM, 1 μM or 10 μM was added on the gel, and an injection needle was inserted between the gel and the wall surface to release the gel from the wall surface, and the gel was incubated to stand in a CO2 incubator. After two or three days, the contraction of the gel was observed, and photos were taken to evaluate the actions of Ripasudil.

HLEpiC [4] = assay: Determination of G-actin/F-actin ratio using G-Actin/F-Actin In Vivo Assay Kit; assay type: cell-based, human; conditions: about an hour, control 1.16
Protocol: HLEpiC was diluted with a medium (Epithelial Cell Medium), and dispensed to a Poly-L-lysine coated T-75 flask at about 5000 cells/cm^2, and cultured in a carbon dioxide incubator (37° C., 5% CO2) until about 50% confluent. A test substance, a positive control or the medium (control) at each concentration given below was added to each flask at 20 mL.
as §1
Positive control: CD with a concentration of 2 μM, and
These were treated in a carbon dioxide incubator (37° C., 5% CO2) for about an hour.
To 20 mL of Lysis and F-actin stabilization buffer was added 200 μL of 100 mM ATP stock solution and 200 μL of 100× Protease inhibitor cocktail stock to produce LAS2 buffer, and this was incubated in a carbon dioxide incubator (37° C.) for about 30 minutes. Warmed LAS2 buffer was added at 2.5 mL to each flask in which the medium was removed with vacuum suction.
Next, adherent HLEpiC was completely scraped with a cell scraper and transferred with the LAS2 buffer to a conical tube, and HLEpiC was crushed with a micropipette (hereinafter, referred to as cell solution). This cell solution was incubated in a carbon dioxide incubator (37° C.) for about 10 minutes and then centrifuged for 10 minutes (2000 rpm, room temperature). The supernatant was dispensed into an ultracentrifugal tube at 1.8 mL and centrifuged for an hour with an ultracentrifuge (100,000× g, 37° C.). At this time, F-actin is precipitated and G-actin remains in the supernatant.
The supernatant was transferred to a conical tube while being careful not to suck F-actin precipitates.
To precipitates of each sample was added 1.8 mL of F-actin depolymerizing buffer, and this was incubated under ice-cold conditions for an hour to depolymerize actin.
From each supernatant sample and precipitate sample, 100 μL each was put in a 1.5 mL Eppendorf tube, and 25 μL of 5×SDS sample buffer was added and stirred.
Each sample was boiled in a boiling water bath for 5 minutes.
Each sample was subjected to SDS-polyacrylamide gel electrophoresis, followed by Western blotting.
Next, after treatment using a Western blotting detection reagent (ECL Select Western Blotting Detection Reagent, GE Healthcare Japan), proteins were detected using a Lumino image analyzer. The quantities of G-actin and F-actin were determined using an analysis software (ImageQuant TL, GE Healthcare Japan) and the G-actin/F-actin ratio was calculated.
The variation in the quantity of F-actin required to form actin stress fibers was evaluated by comparison with the G-actin/F-actin ratio of untreated (Control) cells.

C[C@H]1CNCCCN1S(=O)(=O)c1cccc2cncc(F)c12 [Ripasudil, 4-fluoro-5-{[(2S)-2-methyl-1,4-diazepan-1-yl]sulfonyl}isoquinoline]
cell migration into Detection Zone (observation) (HLEpiC [1]; 100 μM): tendency of inhibition of cell migration | cell migration into Detection Zone (observation) (HLEpiC [1]; 1 mM): definite inhibitory action on cell migration | time after removal at which Detection Zone was filled with HLEpiC (HLEpiC [2]; 100 μM treatment): about 24 hours | state of Detection Zone about 48 hours after removal (HLEpiC [2]; 1 mM treatment, about 48 hours after removal): not filled with HLEpiC | time after removal at which Detection Zone was filled with HLEpiC (HLEpiC [2]; 1 mM treatment): 116 h | Uptake rate of BrdU (% of control) (Normal human fibroblasts; Ripasudil 0.1 μM): 80.0 % of control | Uptake rate of BrdU (% of control) (Normal human fibroblasts; Ripasudil 1.0 μM): 59.3 % of control | Uptake rate of BrdU (% of control) (Normal human fibroblasts; Ripasudil 10.0 μM): 10.9 % of control | Inhibition of contraction ([3]; Ripasudil 0.1 μM): + | Inhibition of contraction ([3]; Ripasudil 1.0 μM): ++ | Inhibition of contraction ([3]; Ripasudil 10.0 μM): +++ | G-actin/F-actin ratio (HLEpiC [4]; 10 μM): 1.91 | G-actin/F-actin ratio (HLEpiC [4]; 100 μM): 4.55 | G-actin/F-actin ratio (HLEpiC [4]; 1 mM): 24.87

Source: US9844556B2, “Preventive/therapeutic method and preventive/therapeutic agent for complications after cataract surgery” (KOWA COMPANY, LTD., priority 2015, dated 2017)
